Results on two substances are retold here after patent publication US20110150769A1, “IDENTIFICATION AND USE OF COMPOUNDS FOR TREATING PERSISTENT PAIN” (priority 2009, published 2011).

The test system of experiment [1] is small-diameter primary sensory neurons (DRG neurons). Briefly: Whole-cell recordings of cultured DRG neurons (evoked action potentials). It is filed as cell-based, mouse. As to the method:
Whole-Cell Voltage-Clamp Recordings of Cultured DRG Neurons
Dissociated DRG neurons were plated on coverslips and cultured for 2-7 hours. For clamp recording, coverslips were perfused with extracellular solution (ECS) consisting of (in mM): NaCl 140, KCl 4, CaCl2 2, MgCl2 2, HEPES 10, Glucose 5, with pH adjusted to 7.38 using NaOH. Neurons with cell body diameters between 22 and 25 μm were recorded in the whole-cell voltage-clamp configuration with electrodes (pipette solution in mM: KCl 135, MgATP 3, Na2ATP 0.5, CaCl2 1.1, EGTA 2, Glucose 5, pH adjusted to 7.38) using an Axon 700B amplifier and the pCLAMP 9.2 software package (Axon Instruments). Electrodes were pulled (Narishige, Model pp-830) from borosilicate glass (WPI, Inc), and after filling they had resistances of 2-4 MΩ. Neurons were perfused with […] FMRFamide for 30 seconds and washed for 3 minutes. Action potentials were elicited with prolonged injections (500 ms) of a depolarizing current (200 pA) before and after FMRFamide treatment. All experiments were performed at room temperature with an experimenter blinded to the genotype.

A further experiment relates to DRG neurons. Briefly: Calcium imaging of cultured DRG neurons. The following applies: for percentage of DRG neurons responding, WT vs MrgprA1GFP/GFP mice: comparison of WT and MrgprA1GFP/GFP mice. It is filed as cell-based, mouse. As to the method:
Calcium Imaging of Cultured Dorsal Root Ganglia (DRG) Neurons
DRG neurons were plated on poly-D-lysine/laminin-coated coverslips and cultured for 24 hours. […] Briefly, neurons were loaded with Fura 2-acetomethoxy ester (Molecular Probes) for 30 min in dark at room temperature. After washing, neurons were imaged at 340/380 nm excitation to detect intracellular free calcium. All tests were performed with an experimenter blinded to the genotype.

[2] abbreviates: adult mutant (Mrgpr-clusterΔ−/−) DRG neurons.

With FMRFamide, the firing rate entry in experiment [1] (Mrgpr-deficient neurons) is listed as “did not show an increase in firing rate”. Besides, the “number of action potentials evoked by injection of depolarizing current” value in experiment [1] (WT DRG neurons, current-clamp) was “significant increase”. Further, the “cells with sensitizing effect / cells recorded” value in experiment [1] (WT adult DRG neurons, cell body diameter 22 to 25 μm) was 10 of 23; in experiment [1] (neurons from Mrgpr-clusterΔ−/− mice), 1 of 20. The “average number of action potentials after treatment” value in experiment [1] (WT neurons, n=10, 500 ms, 200 pA depolarizing current, before treatment 3.6±1.6) is 7.7±1.9. Moreover, the “responses in DRG neurons” value in the experiment on DRG neurons (setting [2]) is “no responses”; in the experiment on DRG neurons (newborn Mrgpr-clusterΔ−/− mice) it was “few or no responses”. Also, the “percentage of DRG neurons responding, WT vs MrgprA1GFP/GFP mice” value in the experiment on DRG neurons is given as “did not differ significantly”.
Consider NPFF, for which the figures for the “responses in DRG neurons” value in the experiment with DRG neurons (setting [2]) and in the experiment with DRG neurons (newborn Mrgpr-clusterΔ−/− mice) were “no responses” and “few or no responses”, respectively. The “percentage of DRG neurons responding, WT vs MrgprA1GFP/GFP mice” value in the experiment on DRG neurons is listed as “did not differ significantly”.
